Earlier results as cited in patent publication US20070254858A1, “Contraceptive and Acne Medication Combination and Treatment of Acne and Other Diseases with Reduced Side Effects” (priority 2006, published 2007).
Each block holds one compound with its values, some of them ahead of it.

Legend:
progesterone activity = settings: 1 mg of progestin; activity of 1 mg of norethindrone taken as baseline
[1] = system: androgen (testosterone-like) activity; settings: 1 mg of progestin; activity of 1 mg of norethindrone taken as baseline
[2] = in vivo
[3] = system: sebaceous gland / sebocytes
severe acne = settings: within 12 to 16 weeks of isotretinoin treatment

SMILES: C#C[C@]1(OC(C)=O)CC[C@H]2[C@@H]3CCC4=CC(=NO)CC[C@@H]4[C@H]3CC[C@@]21CC (mixture of isomers) [norgestimate]
Progestational Activity (progesterone activity): 1.3

SMILES: C#C[C@]1(O)CC[C@H]2[C@@H]3CCC4=CC(=O)CC[C@@H]4[C@H]3CC[C@@]21C [norethindrone]
Progestational Activity (progesterone activity): 1

SMILES: C#C[C@]1(OC(C)=O)CC[C@H]2[C@@H]3CCC4=C[C@@H](OC(C)=O)CC[C@@H]4[C@H]3CC[C@@]21C [ethynodiol diacetate]
Progestational Activity (progesterone activity): 1.4

SMILES: C[C@]12CCC(=O)C=C1[C@@H]1C[C@@H]1[C@H]1[C@@H]3[C@@H]4C[C@@H]4[C@@]4(CCC(=O)O4)[C@@]3(C)CC[C@@H]12 [drospirenone]
Progestational Activity (progesterone activity): 1.5
Androgen Activity [1]: 0

SMILES: C#C[C@]1(O)CC[C@H]2[C@@H]3CCC4=CC(=NO)CC[C@@H]4[C@H]3CC[C@@]21CC (mixture of isomers) [norelgestromin]
Progestational Activity (progesterone activity): 1.3
Androgen Activity [1]: 1.9

effect of food on absorption (drug taken with food): absorption is enhanced
accumulation in the skin (during long term administration): no progressive accumulation
placental transfer (oral isotretinoin): crosses the placenta
half-life (oral isotretinoin, compared to etretinate): 7 to 37 h
SMILES: CC1=C(/C=C/C(C)=C/C=C/C(C)=C\C(=O)O)C(C)(C)CCC1 [isotretinoin, 13-cis-retinoic acid]
parent drug in urine (oral isotretinoin): No parent drug is identified in the urine
most significant side effect [2]: teratogenicity (birth defects)
reduction of sebocyte lipid synthesis ([3]; daily doses as low as 0.1 mg/kg after four weeks): 75%
reduction of sebaceous gland size ([3]; in vivo): up to 90%
people with severe acne in complete or near complete cure (severe acne): Up to 90%

SMILES: C#C[C@]1(OC(C)=O)CC[C@H]2[C@@H]3CCC4=CC(=O)CC[C@@H]4[C@H]3CC[C@@]21C [norethindrone acetate]
Progestational Activity (progesterone activity): 1.2

SMILES: C#C[C@]1(O)CC[C@H]2[C@@H]3CCC4=CCCC[C@@H]4[C@H]3C(=C)C[C@@]21CC [desogestrel]
Progestational Activity (progesterone activity): 9

SMILES: C#CC1(O)CC[C@H]2[C@@H]3CCC4=CC(=O)CC[C@@H]4[C@H]3CC[C@@]21CC (mixture of isomers) [dl-norgestrel]
Progestational Activity (progesterone activity): 2.6
